In paper PMC10999543, “Identification of kinase modulators as host-directed therapeutics against intracellular methicillin-resistant Staphylococcus aureus” (Frontiers in Cellular and Infection Microbiology, 2024):
Like-named read-outs stand apart in the source and are kept apart here.

Legend:
[1] = tested on: intracellular MRSA; type: cell-based, Staphylococcus aureus; settings: for %GFP+ rep 1 / %GFP+ rep 2 / %GFP+ rep 3: PKIS compound screen raw data; for %GFP+ rep 1 / %GFP+ rep 2 / %GFP+ rep 3 / z-scoreMRSA+ mean / z-scoreMRSA+ rep 1 / z-scoreMRSA+ rep 2 / z-scoreMRSA+ rep 3: MRSA-infected HeLa cells; for %GFP+ rep 1 / z-scoreMRSA+ rep 1: replicate 1; for %GFP+ rep 2 / z-scoreMRSA+ rep 2: replicate 2; for %GFP+ rep 3 / z-scoreMRSA+ rep 3: replicate 3; for z-scoreMRSA+ mean: mean of 3 replicates
Protocol: (§1) The cells were resuspended in cell culture medium without antibiotics, seeded with 10,000 cells/well into Costar flat-bottom 96-well plates (Corning, Amsterdam, the Netherlands), and were incubated overnight at 37°C/5% CO2. The next day, the bacteria were centrifuged at ≥1800 g for 15 min and resuspended in cold PBS + 5 mM ethylenediaminetetraacetic acid (EDTA). The number of CFUs present in the bacterial suspension was estimated from the optical density at 600 nm (OD600) by assuming 8x10^8 CFUs to be present in a bacterial suspension with OD600 = 1, based on prior titrations. The bacterial suspension was diluted in cell culture medium without antibiotics and added to the cells. Accuracy of the multiplicity of infection (MOI) was validated by plating serial dilutions of the MRSA inoculums on Difco TS agar plates (BD Biosciences). The calculated mean MOI throughout all experiments was 6.8 ± 4.6 (mean ± SD). Infected cells were centrifuged for 3 min at 150 g and incubated for 1 hour at 37°C/5% CO2. Next, the cells were incubated with fresh cell culture medium supplemented with 30 µg/ml gentamicin sulphate (Lonza BioWhittaker, Basel, Switzerland) for 15 min at 37°C/5% CO2 to kill residual extracellular bacteria. Infected cells were incubated overnight at 37°C/5% CO2 in cell culture medium in the presence of kinase inhibitors and 5 µg/ml gentamicin sulphate-containing medium to prevent the growth of extracellular bacteria. The solvent of the compounds, DMSO, was used at equal % v/v as a negative control. For the screen, each compound was tested in triplicate, on separate cell culture plates, resulting in triplicate values for each kinase inhibitor.
(§2) HeLa cells were harvested by trypsinization and fixed with 1% paraformaldehyde. Samples were measured on a FACSLyric with HTS extension (BD Biosciences). Flow cytometry data were analysed using FlowJo version 10 (TreeStar, Ashland, OR, USA). HeLa cells positive for GFP were gated to calculate the percentage of MRSA-infected cells. The cell count was used as surrogate readout of cell viability.
To identify potential “hit” compounds, the flow cytometry data were used to calculate standard z-scores using z = (x-μ)/σ – zneg, where x is total event count or the percent of GFP-positive cells from a single well, μ is the mean from wells of the plate, σ is the standard deviation of the plate and zneg is the mean z-score of the negative control of the plate (i.e., DMSO) ([Korbee et al., 2018]). To minimize the possibility that the presence of extreme values on a plate affected the z-scores, raw values that deviated two-fold from the negative controls were excluded when calculating plate means and standard deviations as used in the aforementioned formula. Compounds were considered a “hit” when z-scoreMRSA+ ≤ -2 and z-scoreHeLa ≥ -3 for cell count. In cases where compounds were screened twice, the average values were used to select hit compounds.

[2] = tested on: HeLa cells; assay: Compound screen by flow cytometry: HeLa cell count as surrogate readout of cell viability (z-scoreHeLa); type: cell-based, human
Protocol: as §1, §2
To minimize the possibility that the presence of extreme values on a plate affected the z-scores, raw values that deviated two-fold from the negative controls were excluded when calculating plate means and standard deviations as used in the aforementioned formula. Compounds were considered a “hit” when z-scoreMRSA+ ≤ -2 and z-scoreHeLa ≥ -3 for cell count. In cases where compounds were screened twice, the average values were used to select hit compounds.

[3] = PKIS compound screen, Yes/No call (effect without cell death)
[4] = PKIS compound screen, Yes/No call on z-scoreMRSA+
[5] = PKIS compound screen raw data, HeLa cell count, replicate 1
[6] = PKIS compound screen raw data, HeLa cell count, replicate 2
[7] = PKIS compound screen raw data, HeLa cell count, replicate 3
[8] = PKIS compound screen, HeLa cell count, mean of 3 replicates
[9] = PKIS compound screen, HeLa cell count, replicate 1
[10] = PKIS compound screen, HeLa cell count, replicate 2
[11] = PKIS compound screen, HeLa cell count, replicate 3
[12] = PKIS compound screen, Yes/No call on z-scoreHeLa

| SMILES | %GFP+ rep 1 [1] [%] | %GFP+ rep 2 [1] [%] | %GFP+ rep 3 [1] [%] | z-scoreMRSA+ mean ([1]; PKIS compound screen) | z-scoreMRSA+ rep 1 ([1]; PKIS compound screen) | z-scoreMRSA+ rep 2 ([1]; PKIS compound screen) | z-scoreMRSA+ rep 3 ([1]; PKIS compound screen) | hit [1, 3] | effect [1, 4] | cell count rep 1 [2, 5] | cell count rep 2 [2, 6] | cell count rep 3 [2, 7] | further results |
| --- | --- | --- | --- | --- | --- | --- | --- | --- | --- | --- | --- | --- | --- |
| c1ccc(Oc2ccc(Nc3ccnc4cc(-c5ccc(CN6CCNCC6)o5)ccc34)cc2)nc1 [GW567142A] | 18.2 | 19.4 | 17.4 | -0.40 | -0.15 | -0.00228 | -1.05 | No | No | 37910 | 29813 | 27656 | z-scoreHeLa mean [2, 8]: 1.26; z-scoreHeLa rep 1 [2, 9]: 1.31; z-scoreHeLa rep 2 [2, 10]: 0.78; z-scoreHeLa rep 3 [2, 11]: 1.70; cell death [2, 12]: No |
| CS(=O)(=O)Nc1ccc(-c2cc(-c3ccccc3)cc(C(N)=O)c2N)cc1 [GSK586581A] | 17.7 | 16.5 | 20.3 | -0.17 | -0.05 | -0.61 | 0.16 | No | No | 20516 | 41456 | 41123 | z-scoreHeLa mean [2, 8]: 0.47; z-scoreHeLa rep 1 [2, 9]: 0.06; z-scoreHeLa rep 2 [2, 10]: 1.24; z-scoreHeLa rep 3 [2, 11]: 0.09; cell death [2, 12]: No |
| COc1cc2c(Nc3cccc(NC(=O)c4ccccc4)c3)ncnc2cc1OCCCN1CCOCC1 [GSK223810A] | 19.8 | 21.2 | 22.6 | 0.38 | 0.27 | 0.49 | 0.37 | No | No | 28720 | 24881 | 20680 | z-scoreHeLa mean [2, 8]: 0.00813; z-scoreHeLa rep 1 [2, 9]: -0.25; z-scoreHeLa rep 2 [2, 10]: -0.07; z-scoreHeLa rep 3 [2, 11]: 0.34; cell death [2, 12]: No |
| O=C(Nc1n[nH]c2cc(-c3cccc(F)c3F)ccc12)C1CC1 [SB-733894] | 21.8 | 21.7 | 19.3 | – | – | – | – | – | – | 4632 | 4442 | 4898 | effect ([1]; Yes/No call from z-scoreMRSA+): No; hit ([1]; Yes/No: effect without cell death): No; z-scoreMRSA+ mean ([1]; compound screen): -0.63; z-scoreMRSA+ rep 1 ([1]; compound screen): -0.81; z-scoreMRSA+ rep 2 ([1]; compound screen): -0.22; z-scoreMRSA+ rep 3 ([1]; compound screen): -0.87; cell death ([2]; Yes/No call from z-scoreHeLa): No; z-scoreHeLa mean ([2]; compound screen, HeLa cell count, mean of 3 replicates): 0.0318; z-scoreHeLa rep 1 ([2]; compound screen, HeLa cell count, replicate 1): 0.20; z-scoreHeLa rep 2 ([2]; compound screen, HeLa cell count, replicate 2): 0.11; z-scoreHeLa rep 3 ([2]; compound screen, HeLa cell count, replicate 3): -0.22 |
| Cc1ccc(C)c(Oc2nccc(-c3c(-c4ccc(F)cc4)ncn3C3CCNCC3)n2)c1 [SB-284852-BT] | – | – | – | – | – | – | – | – | – | – | – | – | cell count rep 1 [2]: 26025; cell count rep 2 [2]: 26957; cell count rep 3 [2]: 22542; cell death [2]: No; z-scoreHeLa mean [2]: 0.10; z-scoreHeLa rep 1 [2]: -0.71; z-scoreHeLa rep 2 [2]: 0.29; z-scoreHeLa rep 3 [2]: 0.70 |
| Cc1cc(C)cc(Oc2nccc(-c3c(-c4ccc(F)cc4)ncn3C3CCNCC3)n2)c1 [SB-284851-BT] | – | – | – | – | – | – | – | – | – | – | – | – | cell count rep 1 [2]: 26737; cell count rep 2 [2]: 41520; cell count rep 3 [2]: 48762; cell death [2]: No; z-scoreHeLa mean [2]: 1.19; z-scoreHeLa rep 1 [2]: 1.00; z-scoreHeLa rep 2 [2]: 1.26; z-scoreHeLa rep 3 [2]: 1.31 |
| Fc1ccc(-c2ncn(C3CCNCC3)c2-c2ccnc(Oc3ccc(Cl)cc3)n2)cc1 [SB-278539] | 13.4 | 15.5 | 16.2 | -1.14 | -1.41 | -0.91 | -1.09 | No | No | – | – | – | – |
| Fc1ccc(-c2ncn(C3CCNCC3)c2-c2ccnc(Oc3cccc(F)c3)n2)cc1 [SB-251505] | 15.0 | 15.3 | 16.6 | -0.95 | -0.91 | -0.97 | -0.97 | No | No | – | – | – | – |
| Cc1cnc(N)c(/C=C/c2cncc(C(=O)NCCc3ccc(Cl)cc3Cl)c2)c1 [GSK190937A] | 17.3 | 19.0 | 19.5 | -0.04 | -0.18 | 0.14 | -0.09 | No | No | – | – | – | – |
| Fc1ccc(-c2ncn(C3CCNCC3)c2-c2ccnc(Oc3cccc(C(F)(F)F)c3)n2)cc1 [SB-253226] | 14.0 | 15.8 | 16.0 | -1.07 | -1.22 | -0.82 | -1.15 | No | No | – | – | – | – |
| COc1ccccc1C1=C(Nc2ccc(O)c(Cl)c2)C(=O)NC1=O [SB-381904] | 16.9 | 18.3 | 18.4 | -0.26 | -0.30 | -0.07 | -0.42 | No | No | – | – | – | – |
